Here are results for five compounds from BindingDB's records for doi:10.1016/s0028-3908(97)00161-5 (University of Bristol, 1997).

Each structure is given as a SMILES string. Some results are limits rather than exact numbers.

Sequence of Glutamate receptor (G1SXH9 whole entry): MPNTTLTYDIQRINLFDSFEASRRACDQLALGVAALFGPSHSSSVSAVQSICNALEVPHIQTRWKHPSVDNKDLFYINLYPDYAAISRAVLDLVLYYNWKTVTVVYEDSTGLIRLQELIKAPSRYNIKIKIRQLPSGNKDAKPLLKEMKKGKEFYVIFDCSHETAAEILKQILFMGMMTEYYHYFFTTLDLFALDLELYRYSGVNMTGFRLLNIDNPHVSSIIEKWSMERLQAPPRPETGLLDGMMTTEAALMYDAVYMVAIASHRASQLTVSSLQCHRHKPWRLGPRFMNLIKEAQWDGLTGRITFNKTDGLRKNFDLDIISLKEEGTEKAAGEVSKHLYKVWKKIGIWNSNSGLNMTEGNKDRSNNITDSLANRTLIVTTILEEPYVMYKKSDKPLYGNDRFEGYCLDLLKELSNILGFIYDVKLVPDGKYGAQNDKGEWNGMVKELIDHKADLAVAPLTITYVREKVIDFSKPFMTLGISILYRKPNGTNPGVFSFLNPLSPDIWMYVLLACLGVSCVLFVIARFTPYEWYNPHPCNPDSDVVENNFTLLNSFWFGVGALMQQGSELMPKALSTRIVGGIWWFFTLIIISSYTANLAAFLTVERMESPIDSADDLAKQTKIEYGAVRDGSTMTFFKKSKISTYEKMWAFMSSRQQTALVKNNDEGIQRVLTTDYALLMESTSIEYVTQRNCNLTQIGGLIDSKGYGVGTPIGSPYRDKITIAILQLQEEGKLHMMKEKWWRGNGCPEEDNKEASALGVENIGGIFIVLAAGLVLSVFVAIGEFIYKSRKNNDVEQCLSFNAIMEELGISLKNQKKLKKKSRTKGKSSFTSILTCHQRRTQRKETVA

The assay addresses Glutamate receptor (Oryctolagus cuniculus, UniProt G1SXH9).
As to `C/C(=C\C=C\[C@@H](C)C(=O)O)[C@H]1CN[C@H](C(=O)O)[C@H]1CC(=O)O`, the Ki turned out to be 0.71 nM.

In turn, `N[C@@H](Cn1oc(=O)[nH]c1=O)C(=O)O` [2-amino-3-(3,5-dioxo[1,2,4]oxadiazolidin-2-yl)propionic acid] displayed an inhibition constant (Ki) of 16.5 nM. Then `N#Cc1cc2nc(O)c(O)nc2cc1[N+](=O)[O-]` [7-Cyano-3-hydroxy-6-nitro-quinoxalin-2-ol anion], with 2150 nM; and `N[C@@H](Cn1cc(F)c(=O)[nH]c1=O)C(=O)O` [(S)-5-Fluorowillardiine], with greater than 10000 nM.

`CN[C@H](CC(=O)O)C(=O)O` [NMDA] yielded a Ki greater than 10000 nM.

In general, Ki refers to the dissociation constant of the complex between target and ligand, obtained from inhibition or displacement. Low values mean tighter binding, high ones weaker binding.
